“And” between values parts separate entries of the source, which are not always exact repeats. Equal values may be shown once. Toxic doses and inconclusive results are not listed.
Tested on: L1210 leukemia ip in BDF1 mice, survival T/C
Assay: NCI In Vivo Anticancer Drug Screen. Data for tumor model L1210 Leukemia (intraperitoneal) in B6D2F1 (BDF1) mice
Conditions: endpoint: mean survival time, higher = longer survival
Method in brief: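 Value reflects the ratio of survival in compound-treated mice to survival in vehicle-treated controls, with both groups carrying the same transplanted tumor.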

[1] = dose: 100.0 mg/kg/injection, schedule: Q01DX001 (ip), vehicle: Klucel (hydroxypropylcellulose) (HPC)
[2] = dose: 1.5 mg/kg/injection, schedule: Q04DX003 (ip), vehicle: saline
[3] = dose: 3.0 mg/kg/injection, schedule: Q04DX003 (ip), vehicle: saline
[4] = dose: 6.0 mg/kg/injection, schedule: Q04DX003 (ip), vehicle: saline
[5] = dose: 100.0 mg/kg/injection, schedule: Q04DX002 (ip), vehicle: saline with Tween-80
[6] = dose: 100.0 mg/kg/injection, schedule: Q04DX003 (ip), vehicle: Klucel (hydroxypropylcellulose) (HPC)
[7] = dose: 200.0 mg/kg/injection, schedule: Q04DX003 (ip), vehicle: Klucel (hydroxypropylcellulose) (HPC)
[8] = dose: 400.0 mg/kg/injection, schedule: Q04DX003 (ip), vehicle: Klucel (hydroxypropylcellulose) (HPC)
[9] = dose: 100.0 mg/kg/injection, schedule: Q04DX003 (ip), vehicle: saline with Tween-80
[10] = dose: 200.0 mg/kg/injection, schedule: Q04DX003 (ip), vehicle: saline with Tween-80
[11] = dose: 400.0 mg/kg/injection, schedule: Q04DX003 (ip), vehicle: saline with Tween-80
[12] = dose: 100.0 mg/kg/injection, schedule: Q01DX009 (ip), vehicle: Klucel (hydroxypropylcellulose) (HPC)
[13] = dose: 200.0 mg/kg/injection, schedule: Q01DX009 (ip), vehicle: Klucel (hydroxypropylcellulose) (HPC)
[14] = dose: 400.0 mg/kg/injection, schedule: Q01DX009 (ip), vehicle: Klucel (hydroxypropylcellulose) (HPC)
[15] = dose: 200.0 mg/kg/injection, schedule: Q01DX009 (ip), vehicle: saline with Tween-80
[16] = dose: 400.0 mg/kg/injection, schedule: Q01DX009 (ip), vehicle: saline with Tween-80
[17] = dose: 100.0 mg/kg/injection, schedule: Q04DX002 (ip), vehicle: Klucel (hydroxypropylcellulose) (HPC)
[18] = dose: 200.0 mg/kg/injection, schedule: Q04DX002 (ip), vehicle: Klucel (hydroxypropylcellulose) (HPC)
[19] = dose: 100.0 mg/kg/injection, schedule: Q01DX001 (ip), vehicle: saline
[20] = dose: 200.0 mg/kg/injection, schedule: Q01DX001 (ip), vehicle: saline
[21] = dose: 400.0 mg/kg/injection, schedule: Q01DX001 (ip), vehicle: saline

CC(=O)Nc1c(CCCCc2ccccc2)[nH]c(=O)[nH]c1=O
T/C (dose: 25.0 mg/kg/injection, schedule: Q01DX001 (ip), vehicle: Klucel (hydroxypropylcellulose) (HPC)): 101 % of control | T/C (dose: 50.0 mg/kg/injection, schedule: Q01DX001 (ip), vehicle: Klucel (hydroxypropylcellulose) (HPC)): 92 % of control | T/C [1]: 99 % of control and 101 % of control

CCOC(=O)C(C)[P+](c1ccccc1)(c1ccccc1)c1ccccc1 (stereo unspecified)
T/C (dose: 1.5 mg/kg/injection, schedule: Q01DX009 (ip), vehicle: saline): 108 % of control | T/C [2]: 98 % of control | T/C (dose: 3.0 mg/kg/injection, schedule: Q01DX009 (ip), vehicle: saline): 106 % of control | T/C [3]: 108 % of control | T/C [4]: 123 % of control

CCSCCOP(=S)(N(CC)CC)N(CC)CC
T/C [5]: 88 % of control | T/C (dose: 200.0 mg/kg/injection, schedule: Q04DX002 (ip), vehicle: saline with Tween-80): 95 % of control | T/C (dose: 400.0 mg/kg/injection, schedule: Q04DX002 (ip), vehicle: saline with Tween-80): 104 % of control

COc1cc(C)c(C)cc1C(C)C(C)C(=O)O (stereo unspecified)
T/C [6]: 97 % of control | T/C [7]: 98 % of control | T/C [8]: 98 % of control

Cc1cccc2ccc3ccc4ccccc4c3c12
T/C [9]: 96 % of control | T/C [10]: 89 % of control | T/C [11]: 92 % of control

CC(=O)[O][Hg][c]1sc2ccccc2c1C
T/C (dose: 0.5 mg/kg/injection, schedule: Q01DX015 (ip), vehicle: other): 106 % of control | T/C (dose: 1.0 mg/kg/injection, schedule: Q01DX015 (ip), vehicle: other): 98 % of control | T/C [2]: 103 % of control | T/C (dose: 2.0 mg/kg/injection, schedule: Q01DX015 (ip), vehicle: other): 98 % of control | T/C (dose: 2.12 mg/kg/injection, schedule: Q01DX009 (ip), vehicle: saline with Tween-80): 98 % of control | T/C (dose: 3.0 mg/kg/injection, schedule: Q01DX001 (ip), vehicle: acetone): 101 % of control | T/C [3]: 95 % of control | T/C (dose: 4.0 mg/kg/injection, schedule: Q01DX015 (ip), vehicle: other): 96 % of control | T/C (dose: 4.25 mg/kg/injection, schedule: Q01DX009 (ip), vehicle: saline with Tween-80): 95 % of control | T/C (dose: 6.0 mg/kg/injection, schedule: Q01DX001 (ip), vehicle: acetone): 95 % of control | T/C [4]: 98 % of control | T/C (dose: 8.5 mg/kg/injection, schedule: Q01DX009 (ip), vehicle: saline with Tween-80): 98 % of control | T/C (dose: 8.5 mg/kg/injection, schedule: Q04DX003 (ip), vehicle: acetone): 98 % of control | T/C (dose: 12.0 mg/kg/injection, schedule: Q01DX001 (ip), vehicle: acetone): 86 % of control | T/C (dose: 12.0 mg/kg/injection, schedule: Q01DX009 (ip), vehicle: saline with Tween-80): 95 % of control and 88 % of control | T/C (dose: 19.0 mg/kg/injection, schedule: Q01DX009 (ip), vehicle: saline with Tween-80): 92 % of control | T/C (dose: 28.0 mg/kg/injection, schedule: Q01DX009 (ip), vehicle: saline with Tween-80): 106 % of control

O=NN(CCCl)C(=O)NC1Cc2ccccc2C1
T/C (dose: 8.0 mg/kg/injection, schedule: Q01DX001 (ip), vehicle: other): 109 % of control | T/C (dose: 62.0 mg/kg/injection, schedule: Q01DX001 (ip), vehicle: other): 239 % of control | T/C (dose: 125.0 mg/kg/injection, schedule: Q01DX001 (ip), vehicle: other): 264 % of control | T/C (dose: 250.0 mg/kg/injection, schedule: Q01DX001 (ip), vehicle: other): 112 % of control | T/C (dose: 500.0 mg/kg/injection, schedule: Q01DX001 (ip), vehicle: other): 86 % of control

NC(CO)C(O)c1ccc([N+](=O)[O-])cc1 (stereo unspecified)
T/C [12]: 101 % of control | T/C [6]: 91 % of control | T/C [13]: 101 % of control | T/C [7]: 100 % of control | T/C [14]: 101 % of control | T/C [8]: 98 % of control

CCOC(=O)/C(Cc1cnc2ccccc2n1)=N\O
T/C (dose: 100.0 mg/kg/injection, schedule: Q01DX009 (ip), vehicle: saline with Tween-80): 94 % of control | T/C [9]: 105 % of control | T/C [15]: 96 % of control | T/C [10]: 100 % of control | T/C [16]: 100 % of control | T/C [11]: 105 % of control

CCCC(=O)N1CCCCC1C (stereo unspecified)
T/C [17]: 112 % of control | T/C [18]: 89 % of control

CCOC(=O)C1(C(=O)OCC)NC(=O)CC1c1ccccc1 (stereo unspecified)
T/C [12]: 94 % of control | T/C [6]: 92 % of control | T/C [13]: 101 % of control | T/C [7]: 100 % of control | T/C [14]: 92 % of control | T/C [8]: 105 % of control

CC(=O)OCCOC(C)=O
T/C [19]: 103 % of control | T/C [20]: 97 % of control | T/C [21]: 94 % of control

c1cc(C2OCCO2)ccn1
T/C [19]: 101 % of control | T/C (dose: 100.0 mg/kg/injection, schedule: Q04DX003 (ip), vehicle: saline): 107 % of control | T/C [20]: 100 % of control | T/C (dose: 200.0 mg/kg/injection, schedule: Q04DX003 (ip), vehicle: saline): 100 % of control | T/C [21]: 100 % of control | T/C (dose: 400.0 mg/kg/injection, schedule: Q04DX003 (ip), vehicle: saline): 97 % of control

CC(=O)c1cc(C)c(O)c(C)c1
T/C (dose: 50.0 mg/kg/injection, schedule: Q01DX001 (ip), vehicle: carboxymethylcellulose (CMC)): 107 % of control | T/C (dose: 100.0 mg/kg/injection, schedule: Q01DX001 (ip), vehicle: carboxymethylcellulose (CMC)): 89 % of control | T/C (dose: 200.0 mg/kg/injection, schedule: Q01DX001 (ip), vehicle: carboxymethylcellulose (CMC)): 94 % of control | T/C (dose: 400.0 mg/kg/injection, schedule: Q01DX001 (ip), vehicle: carboxymethylcellulose (CMC)): 91 % of control

CC(Cl)(/N=N\C(C)(Cl)c1ccc(Cl)cc1)c1ccc(Cl)cc1 (stereo unspecified)
T/C [1]: 96 % of control | T/C [12]: 92 % of control | T/C [6]: 103 % of control | T/C (dose: 200.0 mg/kg/injection, schedule: Q01DX001 (ip), vehicle: Klucel (hydroxypropylcellulose) (HPC)): 92 % of control | T/C [13]: 106 % of control | T/C [7]: 103 % of control | T/C (dose: 400.0 mg/kg/injection, schedule: Q01DX001 (ip), vehicle: Klucel (hydroxypropylcellulose) (HPC)): 96 % of control | T/C [14]: 98 % of control | T/C [8]: 93 % of control

Cc1ccc2c(c1)NP(=O)(c1ccccc1)S2 (stereo unspecified)
T/C (dose: 25.0 mg/kg/injection, schedule: Q04DX002 (ip), vehicle: saline with Tween-80): 89 % of control | T/C (dose: 50.0 mg/kg/injection, schedule: Q04DX002 (ip), vehicle: saline with Tween-80): 92 % of control | T/C [5]: 102 % of control and 89 % of control

Nc1nc(N)n(Cc2ccc3c(c2)OCO3)n1
T/C (dose: 100.0 mg/kg/injection, schedule: Q01DX001 (ip), vehicle: saline with Tween-80): 106 % of control | T/C [9]: 104 % of control | T/C (dose: 200.0 mg/kg/injection, schedule: Q01DX001 (ip), vehicle: saline with Tween-80): 104 % of control | T/C [15]: 87 % of control | T/C [10]: 101 % of control | T/C (dose: 400.0 mg/kg/injection, schedule: Q01DX001 (ip), vehicle: saline with Tween-80): 108 % of control | T/C [16]: 101 % of control | T/C [11]: 102 % of control

O=C(NCCc1ccccc1)Nc1ccccc1
T/C (dose: 75.0 mg/kg/injection, schedule: Q01DX009 (ip), vehicle: saline with Tween-80): 100 % of control | T/C (dose: 75.0 mg/kg/injection, schedule: Q04DX003 (ip), vehicle: saline with Tween-80): 92 % of control | T/C (dose: 150.0 mg/kg/injection, schedule: Q01DX009 (ip), vehicle: saline with Tween-80): 90 % of control | T/C (dose: 150.0 mg/kg/injection, schedule: Q04DX003 (ip), vehicle: saline with Tween-80): 91 % of control | T/C (dose: 300.0 mg/kg/injection, schedule: Q01DX009 (ip), vehicle: saline with Tween-80): 88 % of control | T/C (dose: 300.0 mg/kg/injection, schedule: Q04DX003 (ip), vehicle: saline with Tween-80): 89 % of control

CC(=O)OC1CCC2(C)C(=CC=C3C2CCC2(C)C(C(C)=O)CCC32)C1 (stereo unspecified)
T/C [17]: 86 % of control | T/C [18]: 110 % of control | T/C (dose: 400.0 mg/kg/injection, schedule: Q04DX002 (ip), vehicle: Klucel (hydroxypropylcellulose) (HPC)): 104 % of control
